{"source": "patent US20220193241A1", "about": "“AGENT TARGETING DOUBLE-MEMBRANE ORGANELLE DNA” (CHIBA-PREFECTURE, priority 2019, published 2022)", "type_in_all_cases": "cell-based", "key": {"[1]": {"test_system": "A549 cells", "experiment": "Long-term cell proliferation, cell numbers counted for 8 days", "settings": "20 μM", "experimental": "(§1) The suppression of cell proliferation was further observed in the A549 and PC14 cells mentioned above for a long period. The observation was performed for 8 days under the culture conditions described above (both the mtDNA mutation cell line A549 and the PC14 cell line having no mutation were inoculated at 1×10^3 cells/well, cultured for 24 hours, and then treated with CCC021-TPP (final concentration: 20 μM)), and cell numbers were counted."}, "[2]": {"test_system": "PC14 cells", "experiment": "Long-term cell proliferation, cell numbers counted for 8 days", "settings": "20 μM", "experimental": "as §1"}, "[3]": {"test_system": "A549 cells", "experiment": "MTT cell proliferation assay", "experimental": "(§2) The A549 cells and the PC14 cells were inoculated at 5×10^3 cells/dish and 1×10^4 cells/dish, respectively, to 35 mm glass base dishes (IWAKI, Japan), cultured for 24 hours, and then treated with CCC021-TPP (final concentration: 20 μM). Further, 24 hours later, the culture solution was discarded, and a DMEM culture solution containing Mito Tracker(R) Red CMXRos (Life Technologies, USA) was added to attain 100 nM. 30 minutes later, the cells were washed twice with PBS, then fixed in 4% PFA for 30 minutes, then medium-replaced with PBS, preserved at 4° C., immunostained with the antibody by the method described in Example 1, and observed under confocal laser microscope SP8 (Leica, Germany). […] A549 and PC14 were each inoculated at 5×10^2 cells/well to 16 wells of a 96-well plate, cultured for 24 hours, and then treated with CCC021-TPP at 0, 1, 2, 5, 10, 25, and 50 μM each for 2 wells. 5 days later, the cells were reacted at room temperature for 2 hours using CytoSelect™ MTT Cell Proliferation Assay (Cosmo Bio Co., Ltd.), followed by the measurement of absorbance at 590 nm with SPECTRAFLUOR Plus (Tecan Group Ltd.) to conduct a rechallenge experiment of cell proliferation. […] 7 days later, as for change in the live cell numbers of the A549 cells and the PC14 cells, the live cell numbers were measured by trypan blue staining to experimentally examine cell survival rates."}, "[4]": {"test_system": "PC14 cells", "experiment": "MTT cell proliferation assay", "settings": "PC14, 5 days", "experimental": "as §2"}, "[5]": {"test_system": "A549 cells", "experiment": "Trypan blue assay of live cell numbers", "settings": "A549, 7 days later", "experimental": "as §2"}, "[6]": {"test_system": "PC14 cells", "experiment": "Trypan blue assay of live cell numbers", "settings": "PC14, 7 days later", "experimental": "as §2"}, "[7]": {"test_system": "A549 cells", "experiment": "SA-β-Gal staining (senescence marker β-galactosidase)", "settings": "20 μM, 5 days", "experimental": "In order to study whether cellular senescence was induced, the activity of a senescence marker β-galactosidase was determined with SPiDER-β-Gal (DOINDO) in the A549 cells and the PC14 cells after CCC021-TPP administration. 1000 cells were inoculated to a 35 mm dish and then cultured for 24 hours. Then, CCC021-TPP was administered (final concentration: 20 μM), and the cells were cultured for 5 days, washed twice with Hanks' balanced salt solution (HBSS) (pH 7.3), then treated with 500 μL of 4% paraformaldehyde at room temperature for 3 minutes, then washed twice with HBSS again, then treated with 500 μl of SPiDER-β-Gal Working Solution at 37° C. for 30 minutes, then washed once with HBSS, and observed under SP8 confocal microscope."}, "[8]": {"test_system": "A549 cells", "experiment": "Autophagy by anti-LC3 / cytochrome C immunofluorescent staining", "settings": "20 μM, 4-day treatment", "from_the_text": "A possible cause of cellular senescence was the induction of mitochondrion-specific autophagy (mitophagy) of mutant mitochondria by the administration of CCC021-TPP. It is considered that the excessive production of reactive oxygen species in association therewith was involved in the induction of cellular senescence."}, "[9]": {"test_system": "A549 cells", "experiment": "GFP-LC3 transfection and Mito Tracker Red fluorescence observation", "settings": "20 μM, 4 days", "experimental": "5×10^4 cells were inoculated and cultured for 24 hours. Then, 500 μL of OptiMEM, 10 μg of vector DNA (7.5 μL of P3000 reagent), and 20 μL of Lipofectamine(R) 3000 (Thermo Fisher Scientific) were added to the cells, which were then left at room temperature for 5 minutes for transfection and cultured for 24 hours. Then, 1000 subcultured cells were inoculated, cultured with 20 μM CCC021-TPP for 4 days, and then confirmed by fluorescence observation with Mito Tracker Red."}, "[10]": {"test_system": "A549 cells", "experiment": "Expression of apoptosis-related factors by RT-qPCR", "settings": "5 days after treatment", "experimental": "Accordingly, as for the maintenance of senescent cells by the circumvention of apoptosis as well as change in the expression of anti-apoptotic factors BCL-XL, BCL2, and survivin and an pro-apoptotic factor BAX by CCC021-TPP treatment, the cells were recovered 5 days after CCC021-TPP treatment as described above, and RNA extraction, RNA reverse-transcription, cDNA synthesis, and RT-qPCR were performed in the same manner as in Example 1 to examine the expression of apoptosis-related factors (BCL-XL, BCL2, survivin, and BAX) in the A549 cells and the PC14 cells. The primers used for the amplification of each gene are shown below. For qPCR, amplification was performed under conditions involving a holding stage of 50° C. for 2 min→95° C. for 10 min followed by 40 cycles of a cycling stage each involving 95° C. for 15 sec→60° C. for 1 min using Applied Biosystems(R) 7500 real-time PCR system, and melt curve analysis after amplification was conducted at a melt curve stage of 95° C. for 15 sec→60° C. for 1 min→95° C. for 15 sec→60° C. for 15 sec to confirm reaction specificity from the absence of primer dimer by-products or the like in PCR products."}}}
{"compound": "CN(C)CCCNC(=O)CCNC(=O)c1cc(NC(=O)c2cc(NC(=O)CCNC(=O)c3nc(NC(=O)c4cc(NC(=O)c5cc(NC(=O)CCNC(=O)CCCC[P+](c6ccccc6)(c6ccccc6)c6ccccc6)cn5C)cn4C)cn3C)cn2C)cn1C", "note": "[CCC021-TPP]", "values": [{"measurement": "cell number / proliferation", "setting": "[1]", "value": "significant suppression of proliferation"}, {"measurement": "cell number / proliferation", "setting": "[2]", "value": "neither significant difference in cell number nor a cell proliferation suppressive effect was found"}, {"measurement": "cell morphology after administration", "setting": "[3]; A549", "value": "senescent morphology"}, {"measurement": "IC50", "setting": "[3]; Homo sapiens, 120 h, A549, 5 days", "value": 7.97, "unit": "µM"}, {"measurement": "IC50 (MTT assay)", "setting": "[4]", "value": "incalculable"}, {"measurement": "viability (trypan blue)", "setting": "[5]", "value": "no influence on the viability"}, {"measurement": "viability (trypan blue)", "setting": "[6]", "value": "no influence on the viability"}, {"measurement": "activity of senescence marker β-galactosidase", "setting": "[7]", "value": "elevated activity of β-galactosidase was confirmed"}, {"measurement": "mitophagy (colocalization of LC3 and cytochrome C)", "setting": "[8]", "value": "mitophagy was induced"}, {"measurement": "localization of GFP-LC3 on mitochondria", "setting": "[9]", "value": "colocalized with red fluorescence from Mito Tracker Red"}, {"measurement": "expression of anti-apoptotic factor BCL-XL", "setting": "[10]", "value": "increased"}, {"measurement": "expression of pro-apoptotic factor BAX", "setting": "[10]", "value": "increased expression"}, {"measurement": "expression of survivin", "setting": "[10]", "value": "decreased expression"}]}
